In publication PMC4337798 (Biochimica et biophysica acta, 2010):

Experiments:
[1] = molecular target: T1, gastric H,K-ATPase (HKα1) (Mus musculus, UniProt Q64436); assay: K-ATPase activity dose response in gastric membrane vesicles; assay type: cell-based; conditions: read-out: % inhibition at 100 μM
[2] = molecular target: T1, gastric H,K-ATPase (HKα1); assay: as above; assay type: cell-based

T1 sequence (Q64436 whole entry): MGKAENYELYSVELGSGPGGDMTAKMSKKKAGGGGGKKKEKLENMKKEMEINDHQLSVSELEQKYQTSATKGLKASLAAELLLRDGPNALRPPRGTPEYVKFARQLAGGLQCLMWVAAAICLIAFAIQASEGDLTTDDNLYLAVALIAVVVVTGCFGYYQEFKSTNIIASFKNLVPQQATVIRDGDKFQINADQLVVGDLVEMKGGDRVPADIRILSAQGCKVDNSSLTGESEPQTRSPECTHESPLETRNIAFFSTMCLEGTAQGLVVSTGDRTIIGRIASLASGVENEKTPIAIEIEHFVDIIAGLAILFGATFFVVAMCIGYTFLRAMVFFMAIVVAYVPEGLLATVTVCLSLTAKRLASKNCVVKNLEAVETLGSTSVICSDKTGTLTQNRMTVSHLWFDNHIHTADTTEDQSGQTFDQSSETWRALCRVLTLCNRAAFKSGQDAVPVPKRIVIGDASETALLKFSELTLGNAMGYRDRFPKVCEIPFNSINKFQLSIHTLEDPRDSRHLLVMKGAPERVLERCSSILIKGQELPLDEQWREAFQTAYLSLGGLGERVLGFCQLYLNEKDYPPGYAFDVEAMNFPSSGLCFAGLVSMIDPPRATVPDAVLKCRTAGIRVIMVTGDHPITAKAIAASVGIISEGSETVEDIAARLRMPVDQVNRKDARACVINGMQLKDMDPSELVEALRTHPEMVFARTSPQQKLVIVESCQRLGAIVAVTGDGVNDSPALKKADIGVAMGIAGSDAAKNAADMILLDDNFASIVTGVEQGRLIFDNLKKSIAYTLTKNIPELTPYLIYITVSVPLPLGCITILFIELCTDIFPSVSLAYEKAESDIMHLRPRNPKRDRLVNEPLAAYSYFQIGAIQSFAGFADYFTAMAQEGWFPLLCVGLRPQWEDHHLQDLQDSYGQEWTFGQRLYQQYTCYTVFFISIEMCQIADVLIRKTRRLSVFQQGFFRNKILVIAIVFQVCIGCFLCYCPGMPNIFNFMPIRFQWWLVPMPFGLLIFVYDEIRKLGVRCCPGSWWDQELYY
T1 sequence (P50992 whole entry partner): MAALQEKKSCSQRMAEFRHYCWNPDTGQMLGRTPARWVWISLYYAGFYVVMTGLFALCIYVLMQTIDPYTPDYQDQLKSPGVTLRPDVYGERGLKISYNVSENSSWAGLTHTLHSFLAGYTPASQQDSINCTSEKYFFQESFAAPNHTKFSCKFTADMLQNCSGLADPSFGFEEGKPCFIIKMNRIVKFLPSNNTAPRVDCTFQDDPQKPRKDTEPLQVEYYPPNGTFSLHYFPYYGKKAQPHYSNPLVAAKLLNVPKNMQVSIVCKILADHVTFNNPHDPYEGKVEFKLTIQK

| Structure (SMILES) | inhibition at 100 µM [1] [%] | K-ATPase activity dose response in gastric membrane vesicles [2] |
| --- | --- | --- |
| N=C(N)NC(=O)c1nc(Cl)c(N)nc1N [amiloride] | ~65 |  |
| CCN(c1nc(N)c(C(=O)N=C(N)N)nc1Cl)C(C)C [EIPA, 5-N-ethyl-N-isopropylamiloride] |  | Amiloride derivatives benzamil and EIPA had similar inhibitory effects on the gastric K-ATPase activity |
| NC(=NCc1ccccc1)NC(=O)c1nc(Cl)c(N)nc1N [benzamil] |  | Amiloride derivatives benzamil and EIPA had similar inhibitory effects on the gastric K-ATPase activity |
